{"source": "patent US20020048572A1", "about": "“Treatment of hypertriglyceridemia and other conditions using LXR modulators” (priority 2000, published 2002)", "key": {"wild-type mice": {"test_system": "wild-type mice", "test": "Plasma and hepatic lipid analysis in wild-type mice", "format": "in vivo, mouse", "conditions": "7 d", "method": "FIG. 10. Agonist T0901317-mediated increases in hepatic and plasma triglyceride levels and lipogenic mRNA requires LXRs. Analysis of the lipid content of livers and plasma from vehicle- and T0901317-created wild-type and LXRα/β-/- mice (n=5 for each of the four groups shown, treatment for 7 d). Pooled plasma (50 μL from each of five mice per group) was fractionated and lipids analyzed as described. Shown are the concentrations for (A) FPLC triglyceride, (B) FPLC phospholipid, and (C) hepatic triglyceride. (D) Northern blot analysis of hepatic SREEP-I, SREBP-2, SCD-1, FAS, and ACC mRNA levels.\nC57BL/6 mice (Charles River Laboratories) were between 6 and 10 wk old and weighed ˜20-30 g at the initiation of treatment. Golden Syrian Hamsters (Harlan Sprague-Dawley) were between 12 and 16 wk old (80-150 g). Animals were fed regular chow diets containing ˜4% fat and 0.02% cholesterol (PMI Pi-colab 5053 Chow). LXRα and β−/− mice were reared at the University of Texas Southwestern (UTSW) Medical Center at Dallas in accordance with the Institutional Animal Care and Research Advisory Committee at the UTSW Medical Center. Mice at UTSW were maintained on a 12 h light/12 h dark cycle and fed ad libitum a cereal-based mouse chow diet (No. 7001, Harlan Teklad).\nPlasma was prepared from euthanized mice using standard centrifugation techniques and analyzed for plasma total cholesterol, HDL cholesterol, and triglyceride concentrations using a Hitachi 704 Clinical Analyzer. FPLC of plasma lipoproteins was accomplished using 200 μL aliquots of pooled plasma (from three to five animals) and fractionated on Superose 6 columns (Pharmacia). Cholesterol, triglyceride, and phospholipid concentrations in the fractions were determined enzymatically with reagents from Boehringer, Sigma, and Wako, respectively. Hepatic lipids were extracted and analyzed for triglyceride essentially as described (Bucolo, G. and David, H., Clin. Chem. 19:476-482 (1973); Yokode et al., Science 250:1273-1275 (1990))."}, "C57BL/6 mice": {"test_system": "C57BL/6 mice", "test": "Plasma lipid analysis in C57BL/6 mice", "format": "in vivo, mouse", "conditions": "oral treatment", "from_the_text": "FIG. 8. Plasma lipid levels in animals treated with LXR agonist T0901317. The concentrations of (A) plasma triglycerides and (B) HDL-cholesterol for C57BL/6 mice (n=5, for each treatment group, M, males, F, females). (C) Separation of Golden Syrian hamster plasma by fast protein liquid chromatography (FPLC) in combination with analysis of the triglyceride content across PPLC fractions. Lipid data are reported as the mean ±SD for the number of determinations (animals) described in each experiment. Statistical significance (kybd) was defined as P<0.05 (ANOVA using SAS programming statistical test for controls and LXR agonist-treated animals). C57BL/6 mice (Charles River Laboratories) were between 6 and 10 wk old and weighed ˜20-30 g at the initiation of treatment. Golden Syrian Hamsters (Harlan Sprague-Dawley) were between 12 and 16 wk old (80-150 g). Animals were fed regular chow diets containing ˜4% fat and 0.02% cholesterol (PMI Pi-colab 5053 Chow). LXRα and β−/− mice were reared at the University of Texas Southwestern (UTSW) Medical Center at Dallas in accordance with the Institutional Animal Care and Research Advisory Committee at the UTSW Medical Center. Mice at UTSW were maintained on a 12 h light/12 h dark cycle and fed ad libitum a cereal-based mouse chow diet (No. 7001, Harlan Teklad). Plasma was prepared from euthanized mice using standard centrifugation techniques and analyzed for plasma total cholesterol, HDL cholesterol, and triglyceride concentrations using a Hitachi 704 Clinical Analyzer. FPLC of plasma lipoproteins was accomplished using 200 μL aliquots of pooled plasma (from three to five animals) and fractionated on Superose 6 columns (Pharmacia). Cholesterol, triglyceride, and phospholipid concentrations in the fractions were determined enzymatically with reagents from Boehringer, Sigma, and Wako, respectively. Hepatic lipids were extracted and analyzed for triglyceride essentially as described (Bucolo, G. and David, H., Clin. Chem. 19:476-482 (1973); Yokode et al., Science 250:1273-1275 (1990))."}, "Gal4-LXRβ": {"molecular_target": "Gal4-LXRβ (Homo sapiens, UniProt P55055)", "sequence (P55055 222-460 limits assumed)": "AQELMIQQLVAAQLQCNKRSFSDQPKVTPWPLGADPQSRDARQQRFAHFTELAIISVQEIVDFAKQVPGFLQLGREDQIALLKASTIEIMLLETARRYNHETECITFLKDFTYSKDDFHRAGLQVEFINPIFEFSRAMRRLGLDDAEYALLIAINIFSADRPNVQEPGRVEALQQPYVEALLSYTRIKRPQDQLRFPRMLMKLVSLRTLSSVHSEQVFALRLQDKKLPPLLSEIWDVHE", "sequence (P04386 1-147 partner limits assumed)": "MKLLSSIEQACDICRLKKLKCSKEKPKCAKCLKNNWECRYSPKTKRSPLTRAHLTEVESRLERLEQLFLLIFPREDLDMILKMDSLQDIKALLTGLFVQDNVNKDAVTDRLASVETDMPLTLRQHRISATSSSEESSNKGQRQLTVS", "test": "HEK293 Gal4-nuclear receptor chimera luciferase reporter assay", "format": "cell-based", "conditions": "T0901317 1 μM, T0314407 5 μM, 20 h", "from_the_text": "(§1) FIG. 7. (A) Dose responses to LXR ligands in an HEK293 transient transfection assay using a wild-type LXRα expression plasmid and a luciferase reporter gene containing two copies of an LXR response element. DMSO treatments were used to derive the basal level of activation. […] HEK293 cells were cotransfected with a luciferase reporter gene containing four copies of the Gal4 DNA-binding site and the various chimeric Gal4 (DNA-binding domain)-nuclear receptor (ligand-binding domain) proteins shown.\n(§2) HEK293 cells were cotransfected with a luciferase reporter gene and the various Gal4-nuclear receptor chimeric constructs shown and a β-galactosidase (β-gal) expression vector for normalization. Transfected cells were treated with the indicated compounds for 20 h before being harvested. Transfection data and luciferase results are normalized to β-gal and expressed as the fold-induction relative to DMSO controls.\n(§3) PXR, a nuclear receptor involved in the CYP3A-mediated metabolism of a diverse collection of xenobiotics, is known to be activated by a large number of synthetic compounds (Jones et al., Mol. Endocrinol. 14:27-39 (2000))."}, "Gal4-LXRα": {"molecular_target": "Gal4-LXRα (Homo sapiens, UniProt Q13133)", "sequence (Q13133 209-447 limits assumed)": "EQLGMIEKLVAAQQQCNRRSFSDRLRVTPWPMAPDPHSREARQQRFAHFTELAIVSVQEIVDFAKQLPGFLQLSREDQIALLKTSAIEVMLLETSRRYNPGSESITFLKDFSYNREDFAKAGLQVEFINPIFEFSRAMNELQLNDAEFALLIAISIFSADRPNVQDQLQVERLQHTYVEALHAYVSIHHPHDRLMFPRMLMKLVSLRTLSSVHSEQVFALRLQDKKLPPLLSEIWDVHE", "sequence (P04386 1-147 partner limits assumed)": "as the sequence (P04386 1-147 partner limits assumed) above", "test": "HEK293 Gal4-nuclear receptor chimera luciferase reporter assay", "format": "cell-based", "conditions": "T0901317 1 μM, T0314407 5 μM, 20 h", "from_the_text": "as §1, §2, §3"}, "LXRα/β−/− mice": {"test_system": "LXRα/β−/− mice", "test": "Plasma and hepatic lipid analysis in LXRα/β−/− mice", "format": "in vivo, mouse", "method": "FIG. 10. […] Pooled plasma (50 μL from each of five mice per group) was fractionated and lipids analyzed as described. Shown are the concentrations for (A) FPLC triglyceride, (B) FPLC phospholipid, and (C) hepatic triglyceride. (D) Northern blot analysis of hepatic SREEP-I, SREBP-2, SCD-1, FAS, and ACC mRNA levels.\nC57BL/6 mice (Charles River Laboratories) were between 6 and 10 wk old and weighed ˜20-30 g at the initiation of treatment. Golden Syrian Hamsters (Harlan Sprague-Dawley) were between 12 and 16 wk old (80-150 g). […] LXRα and β−/− mice were reared at the University of Texas Southwestern (UTSW) Medical Center at Dallas in accordance with the Institutional Animal Care and Research Advisory Committee at the UTSW Medical Center.\nFPLC of plasma lipoproteins was accomplished using 200 μL aliquots of pooled plasma (from three to five animals) and fractionated on Superose 6 columns (Pharmacia). Cholesterol, triglyceride, and phospholipid concentrations in the fractions were determined enzymatically with reagents from Boehringer, Sigma, and Wako, respectively."}}, "data": [{"compound": "O=S(=O)(c1ccccc1)N(CC(F)(F)F)c1ccc(C(O)(C(F)(F)F)C(F)(F)F)cc1", "note": "[T0901317, N-(2,2,2-trifluoro-ethyl)-N-[4-(2,2,2-trifluoro-1-hydroxy-1-trifluoromethyl-ethyl)-phenyl]-benzenesulfonamide]", "values": [{"measurement": "plasma VLDL-triglyceride (FPLC)", "setting": "wild-type mice; wild type mice, fold increase", "value": "threefold"}, {"measurement": "total plasma triglycerides", "setting": "wild-type mice; wild-type mice", "value": "225.7 ± 7", "unit": "mg/dL"}, {"measurement": "hepatic triglyceride", "setting": "wild-type mice; wild-type mice, fold vs vehicle-treated controls", "value": "fivefold"}, {"measurement": "HDL-phospholipid", "setting": "C57BL/6 mice", "value": "comparable increases"}, {"measurement": "plasma total cholesterol (mainly HDL cholesterol)", "setting": "C57BL/6 mice", "value": "comparable increases"}, {"measurement": "plasma triglycerides", "setting": "C57BL/6 mice", "value": "significant elevations"}, {"measurement": "plasma very low density lipoproteins (VLDL) triglycerides", "setting": "C57BL/6 mice", "value": "Increases"}, {"measurement": "transactivation of chimeric Gal4-LXRβ", "setting": "Gal4-LXRβ", "value": "transactivation was also noted"}, {"measurement": "transcriptional activation of Gal4-LXRα", "setting": "Gal4-LXRα", "value": "highest activity"}, {"measurement": "total plasma triglyceride", "setting": "LXRα/β−/− mice; LXRα/β−/− mice vs vehicle-treated LXRα/β−/−", "value": "scant increases"}, {"measurement": "hepatic triglyceride levels", "setting": "LXRα/β−/− mice; LXRα/β−/− mice, 7 d", "value": "no significant elevation"}, {"measurement": "plasma VLDL-triglyceride", "setting": "LXRα/β−/− mice; LXRα/β−/− mice, 7 d", "value": "relatively minute increase"}]}]}
